Assay results from patent US20060062732A1, “Medicine for detecting lipid components in vivo and vascular endoscope” (Yasumi UCHIDA, priority 2004, published 2006).

Experiments:
[1] = Self-fluorescence of dyes and plaque substances by fluorescent microscopy; format: physicochemical; design: key to Self-fluorescence colour: B: blue.; G: green.; O: orange.; W: white.; Y: yellow; conditions: for Self-fluorescence present or not: exciting 360/emitting 420 nm or exciting 470/emitting 515 nm
[2] = molecular target: T1, ApoB100 (apolipoprotein B100) (Homo sapiens, UniProt P04114); experiment: Dye-evoked fluorescence of ApoB100, fluorescent microscopy; design: key: RO: reddish orange; conditions: ApoB (Table 4)
T1 construct: purchased ICN Biomedicals, Ohio

[3] = molecular target: T1, ApoB100 (apolipoprotein B100); experiment: as above; design: key: B: blue.; G: green.; O: orange.; W: white.; Y: yellow
[4] = molecular target: T1, ApoB100 (apolipoprotein B100); experiment: as above; design: key: B: blue.; Br: brown.; G: green.; Go: gold.; O: orange.; P: purple.; R: red.; SB: sky blue.; V: violet.; W: white.; Y: yellow; conditions: exciting 360 nm, emitting 420 nm
[5] = exciting filter 360 nm, emitting filter 420 nm
[6] = exciting filter 470 nm, emitting filter 515 nm
[7] = exciting 360 nm, emitting 420 nm
[8] = exciting 470 nm, emitting 515 nm

T1 sequence (P04114 28-4563, species assumed): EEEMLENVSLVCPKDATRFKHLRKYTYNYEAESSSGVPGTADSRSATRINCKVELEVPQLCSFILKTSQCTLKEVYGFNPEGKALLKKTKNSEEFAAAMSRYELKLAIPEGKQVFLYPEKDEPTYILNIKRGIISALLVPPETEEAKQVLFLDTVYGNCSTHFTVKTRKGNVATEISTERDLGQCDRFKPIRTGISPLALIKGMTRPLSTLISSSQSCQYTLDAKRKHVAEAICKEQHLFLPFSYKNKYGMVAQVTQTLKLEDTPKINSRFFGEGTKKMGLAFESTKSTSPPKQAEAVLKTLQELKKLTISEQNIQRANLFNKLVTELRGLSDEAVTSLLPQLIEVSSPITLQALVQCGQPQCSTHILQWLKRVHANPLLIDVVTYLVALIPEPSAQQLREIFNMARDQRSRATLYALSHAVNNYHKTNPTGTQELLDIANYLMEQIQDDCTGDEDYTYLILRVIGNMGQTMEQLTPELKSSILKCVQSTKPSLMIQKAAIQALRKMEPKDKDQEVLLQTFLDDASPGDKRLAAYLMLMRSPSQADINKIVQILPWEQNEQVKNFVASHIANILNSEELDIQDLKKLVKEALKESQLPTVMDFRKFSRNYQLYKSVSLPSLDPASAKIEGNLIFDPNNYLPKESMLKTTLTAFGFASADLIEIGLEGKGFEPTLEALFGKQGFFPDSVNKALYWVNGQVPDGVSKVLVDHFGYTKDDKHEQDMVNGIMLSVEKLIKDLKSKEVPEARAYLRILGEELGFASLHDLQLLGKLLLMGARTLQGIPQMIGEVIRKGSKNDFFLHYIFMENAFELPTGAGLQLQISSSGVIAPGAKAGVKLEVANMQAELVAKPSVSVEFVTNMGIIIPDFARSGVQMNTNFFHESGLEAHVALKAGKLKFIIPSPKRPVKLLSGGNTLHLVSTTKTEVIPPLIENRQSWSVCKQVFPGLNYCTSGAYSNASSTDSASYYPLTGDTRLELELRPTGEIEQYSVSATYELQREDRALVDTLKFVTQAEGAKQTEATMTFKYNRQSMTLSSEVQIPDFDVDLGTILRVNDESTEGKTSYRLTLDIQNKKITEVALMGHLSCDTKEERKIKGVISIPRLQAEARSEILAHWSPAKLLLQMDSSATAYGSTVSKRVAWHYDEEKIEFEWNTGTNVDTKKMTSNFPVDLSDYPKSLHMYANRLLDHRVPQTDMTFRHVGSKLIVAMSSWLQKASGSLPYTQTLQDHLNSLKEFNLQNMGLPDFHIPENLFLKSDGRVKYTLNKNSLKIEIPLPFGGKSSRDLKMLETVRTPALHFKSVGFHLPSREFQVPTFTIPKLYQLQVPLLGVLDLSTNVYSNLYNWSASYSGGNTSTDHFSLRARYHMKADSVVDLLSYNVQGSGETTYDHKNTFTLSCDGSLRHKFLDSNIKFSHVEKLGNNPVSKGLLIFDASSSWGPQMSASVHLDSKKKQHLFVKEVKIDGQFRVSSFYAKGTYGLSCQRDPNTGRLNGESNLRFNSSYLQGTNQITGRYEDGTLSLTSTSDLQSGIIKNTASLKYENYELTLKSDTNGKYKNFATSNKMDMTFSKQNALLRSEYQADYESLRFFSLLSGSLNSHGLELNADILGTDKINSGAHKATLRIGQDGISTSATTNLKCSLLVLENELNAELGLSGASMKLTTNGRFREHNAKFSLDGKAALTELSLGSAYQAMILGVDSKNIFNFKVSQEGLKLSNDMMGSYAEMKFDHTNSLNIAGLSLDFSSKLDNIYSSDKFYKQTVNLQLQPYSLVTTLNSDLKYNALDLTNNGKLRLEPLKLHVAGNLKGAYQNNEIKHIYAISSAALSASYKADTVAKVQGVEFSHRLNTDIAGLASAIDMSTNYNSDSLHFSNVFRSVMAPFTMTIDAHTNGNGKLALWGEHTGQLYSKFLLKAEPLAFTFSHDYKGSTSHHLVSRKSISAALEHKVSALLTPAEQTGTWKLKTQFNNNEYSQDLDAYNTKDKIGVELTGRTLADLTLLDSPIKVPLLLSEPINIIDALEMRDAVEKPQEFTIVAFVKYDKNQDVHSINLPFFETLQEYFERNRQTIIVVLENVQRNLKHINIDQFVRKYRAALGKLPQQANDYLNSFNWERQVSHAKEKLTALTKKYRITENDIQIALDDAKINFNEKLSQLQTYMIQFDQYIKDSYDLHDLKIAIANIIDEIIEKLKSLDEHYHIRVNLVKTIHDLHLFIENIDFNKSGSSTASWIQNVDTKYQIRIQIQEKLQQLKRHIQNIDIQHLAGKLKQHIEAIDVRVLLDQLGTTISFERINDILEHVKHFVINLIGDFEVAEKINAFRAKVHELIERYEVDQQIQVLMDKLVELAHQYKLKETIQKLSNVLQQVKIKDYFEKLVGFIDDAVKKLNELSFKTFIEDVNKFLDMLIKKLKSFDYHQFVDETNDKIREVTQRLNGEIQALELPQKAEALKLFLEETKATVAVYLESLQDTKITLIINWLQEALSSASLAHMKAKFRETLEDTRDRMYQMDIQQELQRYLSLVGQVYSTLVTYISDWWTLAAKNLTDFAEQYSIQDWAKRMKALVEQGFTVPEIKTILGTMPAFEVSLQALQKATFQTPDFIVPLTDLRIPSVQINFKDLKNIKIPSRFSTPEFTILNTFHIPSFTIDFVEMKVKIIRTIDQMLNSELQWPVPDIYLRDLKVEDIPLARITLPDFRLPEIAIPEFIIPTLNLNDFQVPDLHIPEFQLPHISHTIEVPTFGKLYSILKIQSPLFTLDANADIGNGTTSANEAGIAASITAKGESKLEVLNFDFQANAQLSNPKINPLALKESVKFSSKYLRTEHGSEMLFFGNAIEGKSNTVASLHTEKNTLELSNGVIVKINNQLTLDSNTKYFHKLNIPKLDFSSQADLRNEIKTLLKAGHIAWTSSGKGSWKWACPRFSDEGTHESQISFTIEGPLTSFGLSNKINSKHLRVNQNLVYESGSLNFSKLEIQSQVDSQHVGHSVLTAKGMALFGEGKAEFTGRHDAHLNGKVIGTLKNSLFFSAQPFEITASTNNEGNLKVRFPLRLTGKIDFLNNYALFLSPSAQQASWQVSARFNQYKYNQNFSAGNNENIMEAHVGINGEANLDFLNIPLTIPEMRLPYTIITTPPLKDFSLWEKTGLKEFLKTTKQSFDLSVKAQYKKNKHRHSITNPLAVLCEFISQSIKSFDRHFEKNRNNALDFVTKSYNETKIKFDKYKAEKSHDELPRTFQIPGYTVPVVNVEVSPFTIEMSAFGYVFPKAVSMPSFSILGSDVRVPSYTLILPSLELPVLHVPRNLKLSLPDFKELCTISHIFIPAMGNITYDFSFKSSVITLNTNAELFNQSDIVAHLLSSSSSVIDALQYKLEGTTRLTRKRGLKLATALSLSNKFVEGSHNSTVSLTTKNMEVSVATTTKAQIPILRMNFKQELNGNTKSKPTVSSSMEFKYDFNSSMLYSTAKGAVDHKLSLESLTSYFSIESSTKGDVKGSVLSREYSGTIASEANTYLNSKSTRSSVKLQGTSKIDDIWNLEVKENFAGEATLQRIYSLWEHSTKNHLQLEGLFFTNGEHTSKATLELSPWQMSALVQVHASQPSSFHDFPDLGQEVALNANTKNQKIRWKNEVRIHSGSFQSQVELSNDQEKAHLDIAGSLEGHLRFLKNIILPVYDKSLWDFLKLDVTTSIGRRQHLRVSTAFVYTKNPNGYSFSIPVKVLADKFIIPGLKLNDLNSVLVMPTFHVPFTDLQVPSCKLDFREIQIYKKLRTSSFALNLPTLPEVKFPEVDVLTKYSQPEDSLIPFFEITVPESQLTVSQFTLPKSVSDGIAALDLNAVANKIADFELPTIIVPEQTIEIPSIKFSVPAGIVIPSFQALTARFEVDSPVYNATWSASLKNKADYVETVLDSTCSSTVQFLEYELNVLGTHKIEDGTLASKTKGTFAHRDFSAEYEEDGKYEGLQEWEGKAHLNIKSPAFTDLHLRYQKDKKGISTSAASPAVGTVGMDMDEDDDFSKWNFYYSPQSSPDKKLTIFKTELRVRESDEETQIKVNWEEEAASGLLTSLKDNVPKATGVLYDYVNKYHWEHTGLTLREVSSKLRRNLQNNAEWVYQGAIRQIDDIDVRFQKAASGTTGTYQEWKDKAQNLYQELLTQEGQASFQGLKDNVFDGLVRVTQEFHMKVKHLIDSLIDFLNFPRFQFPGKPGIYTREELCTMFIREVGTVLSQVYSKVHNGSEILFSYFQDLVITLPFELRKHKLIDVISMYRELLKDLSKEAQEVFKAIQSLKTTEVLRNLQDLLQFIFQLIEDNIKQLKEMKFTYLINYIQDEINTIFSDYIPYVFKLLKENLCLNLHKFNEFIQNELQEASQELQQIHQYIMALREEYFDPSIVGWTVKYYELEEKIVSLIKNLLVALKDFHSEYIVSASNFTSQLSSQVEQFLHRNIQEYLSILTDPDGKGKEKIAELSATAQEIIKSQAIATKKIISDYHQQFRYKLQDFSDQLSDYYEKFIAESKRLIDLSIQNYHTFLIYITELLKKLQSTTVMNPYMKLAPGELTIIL

Compound	Self-fluorescence present or not [1]	Self-fluorescence colour [1, 5]	Self-fluorescence colour [1, 6]	Dye-evoked fluorescence colour [3, 8]	further results
CC1=C(/C=C/C(C)=C/C=C/C(C)=C/C=C/C=C(C)/C=C/C=C(C)/C=C/C2=C(C)CCCC2(C)C)C(C)(C)CCC1 [beta-Carotene]	had self-fluorescence	O	O		
CCCCC/C=C\C/C=C\CCCCCCCC(=O)O[C@H]1CC[C@@]2(C)C(=CC[C@H]3[C@@H]4CC[C@H]([C@H](C)CCCC(C)C)[C@@]4(C)CC[C@@H]32)C1 [Cholesteryl linolate]	had self-fluorescence	W	Y		
CC(C)CCC[C@@H](C)[C@H]1CC[C@H]2[C@@H]3CC=C4C[C@@H](O)CC[C@]4(C)[C@H]3CC[C@]12C [free Cholesterol]	had self-fluorescence	W	Y		
O=S(=O)([O-])c1cccc(N=Nc2ccc(Nc3ccccc3)cc2)c1.[Na+] [Metanyl yellow]	no self-fluorescence				
phosphatidylcholine [PC]	had self-fluorescence	W			
CC1=NN(c2cc(Cl)c(S(=O)(=O)[O-])cc2Cl)C(=O)C1N=Nc1ccc(S(=O)(=O)[O-])cc1.[Na+].[Na+] (stereo not drawn) [Lissamine fast yellow]	no self-fluorescence				
CC[n+]1c(-c2ccccc2)c2cc(N)ccc2c2ccc(N)cc21 [Homidium chloride]	has self-fluorescence	Y	O		Dye-evoked fluorescence colour [2, 7]: RO; Dye-evoked fluorescence colour [2, 8]: RO
Cc1cc(-c2ccc(/N=N/c3c(S(=O)(=O)[O-])cc4cc(S(=O)(=O)[O-])cc(N)c4c3O)c(C)c2)ccc1/N=N/c1c(S(=O)(=O)[O-])cc2cc(S(=O)(=O)[O-])cc(N)c2c1O.[Na+].[Na+].[Na+].[Na+] [Tripan blue]	no self-fluorescence			O	Dye-evoked fluorescence colour [4]: P
Cc1cc(-c2ccc(/N=N/c3ccc4c(S(=O)(=O)O)cc(S(=O)(=O)O)c(N)c4c3O)c(C)c2)ccc1/N=N/c1ccc2c(S(=O)(=O)O)cc(S(=O)(=O)O)c(N)c2c1O [Evans blue]	no self-fluorescence			O	Dye-evoked fluorescence colour [3, 7]: O
CC[N+](CC)=c1ccc2nc3c(cc(N)c4ccccc43)oc-2c1 [Nile blue]	no self-fluorescence			G	Dye-evoked fluorescence colour [3, 7]: O
